Experimental data taken from paper PMC9820430, “New Affordable Methods for Large-Scale Isolation of Major Olive Secoiridoids and Systematic Comparative Study of Their Antiproliferative/Cytotoxic Effect on Multiple Cancer Cell Lines of Different Cancer Origins” (International Journal of Molecular Sciences, 2022).
Like-named read-outs stand apart in the source and are kept apart here.

How the values were obtained:
[1] = test system: MCF-7; assay: EdU incorporation cell proliferation assay, 24 h; assay type: cell-based, human; conditions: for % EdU +ve ± SE (S-phase cells): 24 h treatment at EC50 concentration
Procedure: For this purpose, ten cancer cell lines (i.e., MDA-MB 231, SK-BR-3, MCF-7, A2058, SK-MEL-28, AGS, HepG-2, PANC-1, H1299 and Hela) originating from breast, melanoma, stomach, hepatic, pancreatic, lung and cervical tumors were analyzed in parallel with control samples (i.e., the same cells treated only with 0.2% (v/v) DMSO). […] Subsequently, the treated cells were allowed to incorporate 5-ethynyl-2′-deoxyuridine (EdU) into replicating DNA according to the protocol described in detail in the Experimental Section. […] In this study, after EdU incorporation, the nuclei of the entire cell population were stained with Hoechst and imaged by confocal microscopy (Experimental Section). EdU-positive nuclei, marked by green FL, as well as the total number of nuclei, marked by blue FL, were enumerated by applying the Icy image analysis algorithm on the digital images acquired by confocal microscopy.
Human cancer cells were plated onto sterile glass coverslips (10-mm diameter, 5161063, ThermoFisher Scientific, Waltham, MA, USA) in 24-well tissue culture plates, at a density 5 times the density of cells seeded in 96-well plate and at a final medium volume of 500 μL. In order to obtain homogeneous plating, 250 μL of the medium was added directly to the wells already containing coverslips. Using a tip perpendicularly, coverslips were pressed in order to ensure their attachment to the bottom of the well. The cells were then seeded by adding 250 μL of single-cell suspension drop by drop following a cross path. Immediately after seeding, the plate was shaken back and forth at least ten times to achieve homogeneous plating. The cells were allowed to adhere overnight (~16 h) at 37 °C and 5% (v/v) CO2. The next day, a volume of 500 μL fresh medium was added to each well and the treatment with OOPs was initiated by adding directly to the wells 2 μL of OOPs from the 500× stock in DMSO and immediately mixed afterward by pipetting. […] Control cells were prepared under the same experimental conditions using DMSO instead of the OOPs’ solutions in DMSO at the same final concentration (0.2% (v/v) DMSO). […]

[2] = test system: three breast cancer cell lines (MDA-MB-231, SK-BR-3 and MCF-7); assay: ATP-based luminescence cell viability assay, breast panel; set-up: species or system human; conditions: Homo sapiens; MDA-MB-231, SK-BR-3 and MCF-7; 72 h
Procedure: The antiproliferative/cytotoxic effects of the selected OOPs on each cell line were assessed by measuring the cellular ATP levels after 72 h treatments using an ATP-based luminescence assay. This assay, initially developed as a tumor chemosensitivity assay, has shown considerable promise as a general in vitro toxicity assay due to its high sensitivity that allows the detection of a small number of cells. Consequently, it can be applied to both cancer cell lines and primary tissue cells. […] The EC50 values were calculated by nonlinear regression (curve fit) using a sigmoidal dose–response equation (Figure 2A and Figure S2).
The calculated EC50 values ranged between 9.1–100 μΜ (Table 1). The bioactivity of the oleocanthalic acid (7), studied here for the first time for its antiproliferative/cytotoxic activity, was initially evaluated systematically in the three breast cancer cell lines using a concentration range of 10–100 μM. In all cases, the viability measured was ≥80%, predicting EC50 values > 100 μΜ. […] For this reason, oleocanthalic acid (7) was excluded from the rest of this study.
The OOPs tested in this study were first dissolved in an appropriate DMSO volume such as to prepare a final stock solution of 50 mM, which was further used to prepare various compound concentrations in DMSO-based solutions. The final DMSO concentration in the cell culture was maintained constant in all treated groups of any given experiment and never exceeded the value of 0.2% (v/v). For the treatment experiments, cells were plated in 96-well culture plates, in 100 μL of complete medium at a seeding density of 5000–10,000 cells/well—depending on cells’ size and doubling time—and were allowed to adhere overnight (~16 h). The next day, 150 μL of complete medium was added to each well and the cells were treated with various concentrations of OOPs. Each concentration was tested in triplicate and was repeated 2–3 times. To prepare the final concentration solutions, 0.5 μL of a 500× stock of each tested compound in DMSO was added directly into each well in a final volume of 250 μL culture medium and was gently mixed by pipetting. Control wells were prepared under the same experimental conditions by adding only DMSO at a final concentration of 0.2% (v/v). Compounds were not renewed during the entire period of cell exposure. All cells were cultured at 37 °C in a 5% (v/v) CO2 for 24, 48 or 72 h.
Briefly, after the treatment with OOPs, the adapted medium was removed from the dish wells and the cells were washed twice with medium without FBS. Then, the C-lysis (LT27-076) was diluted in PBS (1:2) and a volume of 50 μL was added to each well. […] Cell viability was quantified by measuring luminescence using a multi-mode microplate reader Safire^2 Tecan (software Magellan V6.00 STD.2PC WIN.20000/XP).

[3] = test system: MDA-MB 231; assay: ATP assay under 1% (v/v) O2 versus 20% (v/v) O2, 72 h; assay type: cell-based, human; conditions: 1% (v/v) O2 vs 20% (v/v) O2
Procedure: The effects of drugs on cancer cell lines are usually tested under atmospheric conditions (20% (v/v) O2). However, the O2 content in tissues (normoxia) and solid tumors (hypoxia) is ≤ 5% (v/v). In some tumors (i.e., pancreatic tumors) the % O2 is even ≤ 1% (v/v). This affects cell metabolism and signaling pathways which depend on the hypoxia-induced Factor 1A (HIF1A) and it could affect the activity of certain drugs. […] The effects of these three OOPs were tested on the MDA-MB 231, SK-BR-3 and MCF-7 breast cancer and on the AGS stomach cancer cell lines.
Figure 6 Effect of O2 concentration on the antiproliferative/cytotoxic effect of OOPs. […] Cell viability was determined on (A) AGS, (B) MDA-MB 231, (C) MCF-7 and (D) SK-BR-3 cell lines using ATP-based luminescence assay. The results presented are from two independent experiments performed in triplicate. Bar graphs represent the mean cell count ± SE in each treatment group normalized to the control group (i.e., cells treated only with 0.2% (v/v) DMSO). * p < 0.05; ** p ≤ 0.01; *** p ≤ 0.001 (t-test) comparing the two different conditions.

[4] = test system: MCF-7; conditions: cited from earlier work
[5] = test system: HaCaT cells; set-up: method as in PMID 27878290, PMID 35630786; conditions: cited from earlier work

Molecule	% Inhibition ± SE of cell proliferation ([1]; 24 h at EC50, normalized with the control)	% EdU +ve ± SE (S-phase cells) [1]	EC50 [2]	bioactivity under hypoxia versus atmospheric O2 [3]	EC50 ([4]; five days of treatment, ref Menendez et al. (2007) 17, read-out: concentration reducing cell viability by 50%)	EC50 ([4]; 48 or 72 h, different culture conditions, read-out: EC50)	sensitivity of cells to treatment [5]
COC(=O)C1=COC(C)[C@@H](C=O)[C@@H]1CC(=O)OCCc1ccc(O)c(O)c1 (mixture of isomers) [3a,b, oleuropein aglycone]	19.3 ± 0.5%	21.1 ± 2.0%	17.7 to 32.2 µM	more resistant	> 100 µM	–	–
C/C=C(/C=O)[C@@H](CC=O)CC(=O)OCCc1ccc(O)cc1 [compound 1, oleocanthal]	–	21.6 ± 4.0%	10.5 to 24.6 µM	–	–	18 to 40 µM	resistant
C/C=C(/C=O)[C@@H](CC=O)CC(=O)OCCc1ccc(O)c(O)c1 [compound 2, oleacein]	–	–	–	–	–	–	resistant
ligstroside aglycone [4a,b]	–	–	–	more resistant	–	–	–
